# Test system: artificial bacterial consortium containing approximately equal numbers of six bacterial strains
# Assay: bacterial growth inhibition dose protocol in synthetic white water (O.D. 650 nm, 4 hours)
# Assay type: cell-based
# Settings: for Synergy Index / Synergy Index**: SI<1 synergism; for ppm BCDMH: BCDMH alone or in blend with NaOPP giving 50% inhibition; for ppm BIT: BIT alone or in blend with NaOPP giving 50% inhibition; for ppm BNS: BNS alone or in blend with NaOPP giving 50% inhibition; for ppm DBNPA: DBNPA alone or in blend with NaOPP giving 50% inhibition; for ppm Dithiol: Dithiol alone or in blend with NaOPP giving 50% inhibition
# Procedure: The actives were evaluated in synthetic white water with pH values of 5.5 and 8.0. The materials were tested against an artificial bacterial consortium containing approximately equal numbers of six bacterial strains. […] Two of the strains were Kiebsiella pneumoia (ATCC 13883) and Pseudomonas aeruginosa (ATCC 15442). The other four strains were isolated from papermill systems and have been identified as Curtobacterium flaccumfaciens, Burkhlderia cepacia, Bacillus maroccanus, and Pseudomonas glethei. Each strain was inoculated at 37° C. overnight, then suspended in sterile saline. Equal volumes of each strain were then combined to prepare the consortium. The bacterial consortium was distributed into the wells of a microtiter plate in the presence or absence of various concentrations of the active materials. The microtiter plates were incubated at 37° C. Optical density (O.D.) readings at 650 nm were taken initially (t0) and after time 4 hours (t4) of incubation.
# The raw data was converted to “bacterial growth inhibition percentages” according to the following formula: % Inhibition=[(a−b)÷a]·100 […]
# a=(O.D. of control at tn)−(O.D. of control at t0) b=(O.D. of treatment at tn)−(O.D. of treatment at t0)
# The inhibition values can be plotted versus dosage for each active and the particular blend. […] The synergism index (SI) was calculated by the equations described by F. C. Kull, P. C. Eisman, H. D. Sylwestrowicz, and R. L. Mayer (1961), Applied Microbiology 9, 538-541. The values are based on the amount needed to achieve a specified end point. […] Synergy Index (SI)=(QA÷Qa)+(QB÷Qb) […]
# QA=quantity of compound A in mixture, producing the end point
# Qa=quantity of compound A1 acting alone, producing the end point
# QB=quantity of compound B in mixture, producing the end point
# Qb=quantity of compound B1 acting alone, producing the end point
# If SI is less than 1, synergism exists; if SI is greater than 1, antagonism exists, if SI is equal to 1, an additive effect exists.
# [1] = pH 5.5, BCDMH & NaOPP, end point 50% inhibition
# [2] = pH 8.0, BCDMH & NaOPP, end point 50% inhibition
# [3] = pH 5.5, BIT & NaOPP, end point 50% inhibition
# [4] = pH 8.0, BIT & NaOPP, end point 50% inhibition
# [5] = pH 5.5, BNS & NaOPP, end point 50% inhibition
# [6] = pH 8.0, BNS & NaOPP, end point 50% inhibition
# [7] = pH 5.5, DBNPA & NaOPP, end point 50% inhibition
# [8] = pH 8.0, DBNPA & NaOPP, end point 50% inhibition
# [9] = pH 5.5, DIMTS & NaOPP, end point 50% inhibition
# [10] = pH 8.0, DIMTS & NaOPP, Calculated Using 40% Inhibition of Bacterial Growth
# [11] = pH 5.5, Dithiol & NaOPP, end point 50% inhibition
# [12] = pH 8.0, Dithiol & NaOPP, end point 50% inhibition
# [13] = pH 5.5, NaOCl & NaOPP, Calculated Using 30% Inhibition of Bacterial Growth
# [14] = pH 5.5, Sulfone & NaOPP, end point 50% inhibition
# [15] = pH 8.0, Sulfone & NaOPP, end point 50% inhibition
smiles,measurement,setting,value
"CC1(C)C(=O)N(Cl)C(=O)N1Br [BCDMH, 1-Bromo-3-chloro-5,5-dimethylhydantoin]",Synergy Index,[1],1.00
same,ppm BCDMH,"pH 5.5, ppm active",14.60 ppm
same,Synergy Index,[2],1.00
same,ppm BCDMH,"pH 8.0, ppm active",34.37 ppm
"O=c1[nH]sc2ccccc12 [BIT, 1,2-Benzisothiazolin-3-one]",Synergy Index,[3],1.00
same,ppm BIT,"pH 5.5, ppm active",1.46 ppm
same,Synergy Index,[4],1.00
same,ppm BIT,"pH 8.0, ppm active",2.86 ppm
"O=[N+]([O-])C(Br)=Cc1ccccc1 [BNS, Bromonitrostyrene]",Synergy Index,[5],1.00
same,ppm BNS,"pH 5.5, ppm active",1.19 ppm
same,Synergy Index,[6],1.00
same,ppm BNS,"pH 8.0, ppm active",3.08 ppm
"N#CC(Br)(Br)C(N)=O [DBNPA, 2,2-Dibromo-3-nitrilopropionamide]",Synergy Index,[7],1.00
same,ppm DBNPA,"pH 5.5, ppm active",1.69 ppm
same,Synergy Index,[8],1.00
same,ppm DBNPA,"pH 8.0, ppm active",3.01 ppm
"Cc1ccc(S(=O)(=O)C(I)I)cc1 [DIMTS, Diiodomethyl-p-tolylsulfone]",Synergy Index,[9],1.00
same,ppm DIMTS,"pH 5.5, DIMTS alone or in blend with NaOPP giving 50% inhibition, ppm active",31.65 ppm
same,Synergy Index**,[10],1.00
same,ppm DIMTS,"pH 8.0, DIMTS alone or in blend with NaOPP producing the end point, footnote: 40% Inhibition of Bacterial Growth",22.84 ppm
"O=c1ssc(Cl)c1Cl [Dithiol, 4,5-Dichloro-1,2-dithiol-3-one]",Synergy Index,[11],1.00
same,ppm Dithiol,"pH 5.5, ppm active",0.073 ppm
same,Synergy Index,[12],1.00
same,ppm Dithiol,"pH 8.0, ppm active",0.16 ppm
"OCl [NaOCl, Sodium Hypochlorite]",Synergy Index**,[13],1.00
same,ppm NaOCl,"pH 5.5, NaOCl alone or in blend with NaOPP producing the end point, footnote: 30% Inhibition of Bacterial Growth",55.27 ppm
"[Na+].[O-]c1ccccc1-c1ccccc1 [NaOPP, Sodium orthophenylphenate]",Synergy Index,[1],1.00
same,Synergy Index,[3],1.00
same,Synergy Index,[5],1.00
same,Synergy Index,[7],1.00
same,Synergy Index,[9],1.00
same,Synergy Index,"pH 5.5, Dazomet & NaOPP, end point 50% inhibition",1.00
same,Synergy Index,[11],1.00
same,Synergy Index,"pH 5.5, Iso & NaOPP, end point 50% Inhibition",1.00
same,Synergy Index**,[13],1.00
same,ppm NaOPP,"pH 5.5, NaOPP alone or in blend with BCDMH giving 50% inhibition, ppm active",78.40 ppm
same,ppm NaOPP,"pH 5.5, NaOPP alone or in blend with BIT giving 50% inhibition, ppm active",84.96 ppm
same,ppm NaOPP,"pH 5.5, NaOPP alone or in blend with BNS giving 50% inhibition, ppm active",90.47 ppm
same,ppm NaOPP,"pH 5.5, NaOPP alone or in blend with DBNPA giving 50% inhibition, ppm active",88.38 ppm
same,ppm NaOPP,"pH 5.5, NaOPP alone or in blend with DIMTS giving 50% inhibition, ppm active",84.10 ppm
same,ppm NaOPP,"pH 5.5, NaOPP alone or in blend with Iso giving 50% Inhibition, ppm active",82.73 ppm
same,ppm NaOPP,"pH 5.5, NaOPP alone or in blend with NaOCl producing the end point, footnote: 30% Inhibition of Bacterial Growth",54.92 ppm
same,ppm NaOPP,"pH 5.5, NaOPP alone or in blend with Sulfone giving 50% inhibition, ppm active",56.78 ppm
same,Synergy Index,[14],1.00
same,Synergy Index,[2],1.00
same,Synergy Index,[4],1.00
same,Synergy Index,[6],1.00
same,Synergy Index,[8],1.00
same,Synergy Index**,[10],1.00
same,Synergy Index,"pH 8.0, Dazomet & NaOPP, end point 50% inhibition",1.00
same,Synergy Index,[12],1.00
same,Synergy Index,"pH 8.0, Iso & NaOPP, end point 50% Inhibition",1.00
same,ppm NaOPP,"pH 8.0, NaOPP alone or in blend with BIT giving 50% inhibition, ppm active",116.41 ppm
same,ppm NaOPP,"pH 8.0, NaOPP alone or in blend with BNS giving 50% inhibition, ppm active",123.16 ppm
same,ppm NaOPP,"pH 8.0, NaOPP alone or in blend with DBNPA giving 50% inhibition, ppm active",137.13 ppm
same,ppm NaOPP,"pH 8.0, NaOPP alone or in blend with DIMTS producing the end point, footnote: 40% Inhibition of Bacterial Growth",97.74 ppm
same,ppm NaOPP,"pH 8.0, NaOPP alone or in blend with Dazomet giving 50% inhibition, ppm active",158.32 ppm
same,ppm NaOPP,"pH 8.0, NaOPP alone or in blend with Dithiol giving 50% inhibition, ppm active",132.71 ppm
same,ppm NaOPP,"pH 8.0, NaOPP alone or in blend with Iso giving 50% Inhibition, ppm active",114.14 ppm
same,ppm NaOPP,"pH 8.0, NaOPP alone or in blend with Sulfone giving 50% inhibition, ppm active",67.8 ppm
same,Synergy Index,[15],1.00
"O=S(=O)(C(Cl)(Cl)Cl)C(Cl)(Cl)Cl [Sulfone, Bis(trichlormethyl)sulfone]",Synergy Index,[14],1.00
same,ppm Sulfone,"pH 5.5, Sulfone alone or in blend with NaOPP giving 50% inhibition, ppm active",1.154 ppm
same,Synergy Index,[15],1.00
same,Ppm Sulfone,"pH 8.0, Sulfone alone or in blend with NaOPP giving 50% inhibition, ppm active",1.34 ppm
